Data as given in US20050036992A1, “Novel use of liver X receptor agonists” (IRM LLC, priority 2002, published 2005).

Legend:
[1] = system: obese, insulin-resistant ob/ob mice; test: Fasting plasma glucose in ob/ob mice, LXR agonist and/or metformin; type: in vivo, mouse; conditions: 3 months, GW3965 20 mg/kg/day, metformin 300 mg/kg/day, FIG. 11
Method: This Example describes treatment of mice with a combination of an LXR agonist and a known anti-diabetic drug. Obese, insulin-resistant ob/ob mice were treated with an LXR ligand, GW3965, at 20 mg/kg/day and/or metformin at 300 mg/kg/day for 3 months. Fasting plasma glucose levels were then determined.

LXRα = biological target: T1, LXRα (Homo sapiens, UniProt Q13133); conditions: Collins et al. 2002; cited from earlier work
T1 sequence (Q13133 1-447): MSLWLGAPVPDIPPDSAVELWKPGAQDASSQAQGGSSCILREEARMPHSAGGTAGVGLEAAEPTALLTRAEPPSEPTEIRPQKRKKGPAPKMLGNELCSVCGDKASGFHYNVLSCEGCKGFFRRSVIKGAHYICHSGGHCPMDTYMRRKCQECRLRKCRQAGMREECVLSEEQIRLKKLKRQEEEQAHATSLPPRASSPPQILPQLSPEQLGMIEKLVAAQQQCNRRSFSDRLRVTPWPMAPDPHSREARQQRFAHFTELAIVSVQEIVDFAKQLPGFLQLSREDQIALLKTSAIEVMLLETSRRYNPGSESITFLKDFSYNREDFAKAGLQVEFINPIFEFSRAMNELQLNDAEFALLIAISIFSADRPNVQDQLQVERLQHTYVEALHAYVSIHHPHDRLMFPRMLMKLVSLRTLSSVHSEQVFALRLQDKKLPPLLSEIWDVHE

[2] = system: GLUT4 expression in adipose tissue of LXR null mice; test: Adipose tissue gene expression in LXR null mice vs wild-type controls; type: in vivo, mouse; conditions: 20 mg/kg/day gavage; FIG. 3B
Method: (§1) This Example describes that the effects of LXR agonists on expression of genes involved in glucose metabolism is dependent on LXR expression. LXR null mice or wild-type controls on a mixed background (n=4 per group) were gavaged daily with GW3965 (20 mg/kg/day) or vehicle. At the end of the treatment period, mice were fasted for 12 hours, sacrificed and total RNA was isolated. Gene expression for was determined by real time quantitative PCR assays.

[3] = system: genes involved in glucose metabolism in liver; test: Gene expression in liver of mice gavaged with LXR agonist (real time quantitative PCR); type: in vivo, mouse; conditions: C57/B16 mice, 20 mg/kg/day gavage, fasted 12 hours; FIG. 1A
Method: (§2) This Example describes coordinated regulation of genes involved in glucose metabolism by LXR agonist in vivo. 10 week old female C57/B16 mice (n=9 per group) were gavaged daily with GW3965 (20 mg/kg/day) or vehicle. At the end of the treatment period, mice were fasted for 12 hours, sacrificed and total RNA was isolated. Gene expression for individual animals was determined by real time quantitative PCR assays. The results are presented in FIGS. 1 and 2 as average expression for each group +/−standard deviation.

LXRβ = biological target: T2, LXRβ (Homo sapiens, UniProt P55055); conditions: Collins et al. 2002; cited from earlier work
T2 sequence (P55055 1-460): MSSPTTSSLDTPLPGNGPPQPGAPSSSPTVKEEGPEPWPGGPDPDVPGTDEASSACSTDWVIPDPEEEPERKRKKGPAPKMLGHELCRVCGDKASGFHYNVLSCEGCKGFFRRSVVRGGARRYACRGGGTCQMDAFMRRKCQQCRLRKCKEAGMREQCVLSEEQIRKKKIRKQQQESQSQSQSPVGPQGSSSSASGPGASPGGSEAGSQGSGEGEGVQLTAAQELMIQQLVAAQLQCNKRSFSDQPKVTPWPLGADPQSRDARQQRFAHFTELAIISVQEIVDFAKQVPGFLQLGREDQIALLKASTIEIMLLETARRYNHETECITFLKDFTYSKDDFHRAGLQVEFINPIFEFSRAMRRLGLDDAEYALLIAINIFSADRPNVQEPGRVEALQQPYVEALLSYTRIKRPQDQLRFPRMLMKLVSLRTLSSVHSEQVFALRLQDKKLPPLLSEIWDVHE

[4] = system: PGC-1 and PEPCK expression in livers of LXR null mice; test: Liver gene expression in LXR null mice vs wild-type controls; type: in vivo, mouse; conditions: 20 mg/kg/day gavage; FIG. 3A
Method: as §1

[5] = system: GLUT4 expression in white adipose tissue; test: Gene expression in white adipose tissue of mice gavaged with LXR agonist (real time quantitative PCR); type: in vivo, mouse; conditions: C57/B16 mice, 20 mg/kg/day gavage, fasted 12 hours; FIG. 1B
Method: as §2

[6] = system: C57B16 mice fed a high fat diet; test: Glucose tolerance test in diet-induced obese mice; type: in vivo, mouse; conditions: diet-induced obesity, 20 mg/kg/day for one week
Method: To further examine effects of LXR agonists on glucose tolerance, C57B16 mice were fed a high fat diet for three months (Clinton/Cybulsky rodent diet; 40% kcal from fat, devoid of cholesterol) to induce obesity. After 3 months, mice were treated for one week with vehicle or 20 mg/kg/day GW3965. Glucose tolerance tests were performed by intraperitoneal injection of glucose (2 g/kg body weight) after 8 hours of fasting (FIG. […]). In addition, effect of GW3965 on glucose tolerance in lean C57B1/6 mice was also examined (FIG. 10B). The lean C57B1/6 mice maintained on normal chow diet and similarly treated as indicated above.

[7] = biological target: T3, glucocorticoid receptor DNA binding domain and the ligand binding region of PPARβ (Homo sapiens, UniProt Q03181); conditions: Schmidt et al. 1999; cited from earlier work
T3 sequence (Q03181 211-439 limits assumed): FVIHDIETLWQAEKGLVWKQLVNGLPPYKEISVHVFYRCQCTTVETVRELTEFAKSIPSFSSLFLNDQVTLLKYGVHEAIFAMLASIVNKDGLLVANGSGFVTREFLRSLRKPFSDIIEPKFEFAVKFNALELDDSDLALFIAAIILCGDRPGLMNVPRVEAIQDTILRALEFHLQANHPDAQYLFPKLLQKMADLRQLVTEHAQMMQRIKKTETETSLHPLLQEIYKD

[8] = biological target: T4, glucocorticoid receptor DNA binding domain and the ligand binding region of PPARα (Homo sapiens, UniProt Q07869); conditions: Schmidt et al. 1999; cited from earlier work
T4 sequence (Q07869 239-466 limits assumed): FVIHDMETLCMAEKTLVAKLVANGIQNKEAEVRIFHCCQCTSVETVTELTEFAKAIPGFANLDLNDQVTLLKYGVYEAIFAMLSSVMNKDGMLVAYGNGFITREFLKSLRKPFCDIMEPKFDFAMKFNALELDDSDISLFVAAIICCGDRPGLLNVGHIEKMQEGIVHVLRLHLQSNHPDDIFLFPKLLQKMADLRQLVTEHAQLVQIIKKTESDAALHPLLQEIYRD

[9] = biological target: T5, glucocorticoid receptor DNA binding domain and the ligand binding region of LXRβ (Homo sapiens, UniProt P55055); conditions: Schmidt et al. 1999; cited from earlier work
T5 sequence (P55055 222-460 limits assumed): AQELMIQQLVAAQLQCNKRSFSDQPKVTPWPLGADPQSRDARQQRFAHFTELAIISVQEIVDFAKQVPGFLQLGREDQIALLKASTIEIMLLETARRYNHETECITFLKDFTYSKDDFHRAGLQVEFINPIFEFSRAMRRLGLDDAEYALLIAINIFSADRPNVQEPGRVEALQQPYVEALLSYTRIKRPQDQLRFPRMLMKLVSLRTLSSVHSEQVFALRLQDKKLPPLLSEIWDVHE

LXRs = conditions: Lehmann et al. 1997; cited from earlier work
3T3-L1 adipocytes = test: Basal glucose uptake in 3T3-L1 adipocytes (14C-labeled 2-DOG); type: cell-based; conditions: 3T3-L1 adipocytes day 10, 24 hours serum-free; FIG. 9
Method: 3T3-L1 adipocytes at day 10 of differentiation were incubated for 24 hours with serum-free media supplemented with the indicated concentrations of T1317. The following day, basal glucose uptake (in the absence of insulin) of treated cells was measured in 96-well CytostarT plates using 14 C-labeled 2-DOG. Insulin (1 μg/ml) was used as positive control.

human GLUT4 promoter = test: Human GLUT4 promoter luciferase reporter in 3T3-L1 adipocytes; type: cell-based, mouse; conditions: 3T3-L1 adipocytes day 8, serum-free media, 24 hours; FIG. 8B
Method: To further examine whether LXR ligands activate the human GLUT4 promoter, clonal populations of 3T3-L1 cells carrying stably-integrated luciferase reporters under the control of various truncations of the human GLUT4 promoter were differentiated into adipocytes. On day 8 of differentiation, cells were incubated in serum-free media with the indicated concentrations of T1317. Luciferase activity was measured 24 hours later.

For `O=C(O)Cc1cccc(OCCCN(Cc2cccc(C(F)(F)F)c2Cl)CC(c2ccccc2)c2ccccc2)c1` [GW3965], the “fasting plasma glucose level compared to control (vehicle)” value [1] is listed as “did not show significant difference”, the “activation of LXRα” value (LXRα) is listed as “effective in activating” and the “regulation of GLUT4 expression in adipose tissue of LXR null mice” value [2] is listed as “abolished”. For the same molecule, the “expression of genes involved in gluconeogenesis in liver” value [3] was “represses”, the “glucokinase expression in liver” value [3] was “induces” and the “activation of LXRβ” value (LXRβ) was “effective in activating”. The “regulation of PEPCK expression in livers of LXR null mice” value [4] was “abolished”, the “regulation of PGC-1 expression in livers of LXR null mice” value [4] was “abolished” and the “GLUT4 expression in white adipose tissue” value [5] was “induces”. The insulin resistance [6] was “improve” and the glucose tolerance ([6]; i.p. glucose 2 g/kg after 8 hours fasting) was “improve”.
For `CCCCCCCCCCCCCCOc1ccc(C(=O)O)o1` [TOFA, 5-tetradecyloxy-2-furancarboxylic acid], the “transactivation of chimeric GR DBD / PPARβ ligand binding region receptor” value [7] is given as “transactivates”, the “transactivation of chimeric GR DBD / PPARα ligand binding region receptor” value [8] is given as “transactivates” and the “transactivation of chimeric GR DBD / LXRβ ligand binding region receptor” value [9] is given as “transactivates”.
For `CN(C)C(=N)N=C(N)N` [metformin], the “fasting plasma glucose level compared to control (vehicle)” value [1] was “did not show significant difference”.
In the case of `CC(C)CC[C@@H](O)[C@@H](C)[C@H]1CC[C@H]2[C@@H]3CC=C4C[C@@H](O)CC[C@]4(C)[C@H]3CC[C@]12C` [22(R)-hydroxycholesterol], the “activation of LXRs” value (LXRs) is listed as “activated”.
In the case of `CC(C)[C@@H](O)CC[C@@H](C)[C@H]1CC[C@H]2[C@@H]3CC=C4C[C@@H](O)CC[C@]4(C)[C@H]3CC[C@]12C` [24(S)-hydroxycholesterol], the “activation of LXRs” value (LXRs) is given as “activated”.
In the case of `O=S(=O)(c1ccccc1)N(CC(F)(F)F)c1ccc(C(O)(C(F)(F)F)C(F)(F)F)cc1` [T1317], the “basal glucose uptake (in the absence of insulin)” value (3T3-L1 adipocytes) was “enhance glucose uptake” and the “luciferase activity under control of human GLUT4 promoter truncations” value (human GLUT4 promoter) was “direct target for regulation”.
For `C[C@H](CC[C@@H]1OC1(C)C)[C@H]1CC[C@H]2[C@@H]3CC=C4C[C@@H](O)CC[C@]4(C)[C@H]3CC[C@]12C` [24,25(S)-epoxycholesterol], the “activation of LXRs” value (LXRs) is listed as “activated”.
